Patent publication US20250099420A1, “SMALL MOLECULE MODULATORS OF GPR139 COMPLEX” (University of Florida Research Foundation, Incorporated, priority 2022, published 2025)
Like-named read-outs stand apart in the source and are kept apart here.

Assays:
[1] = target: T1, GPR139 (Homo sapiens, UniProt Q6DWJ6); experiment: GPR139 Agonist titration / agonist counterscreen assay (calcium detection, HEK-GPR139 cells); assay type: cell-based; design: expressed in transfected cells; host or cells: HEK Aequorin cells, Maxcyte transient transfection; details: GPR139 Agonist Activity; for EC50: read-out: EC50; for Averaged Max % Response (±St. Dev.): activity relative to known control
T1 sequence (Q6DWJ6 1-353): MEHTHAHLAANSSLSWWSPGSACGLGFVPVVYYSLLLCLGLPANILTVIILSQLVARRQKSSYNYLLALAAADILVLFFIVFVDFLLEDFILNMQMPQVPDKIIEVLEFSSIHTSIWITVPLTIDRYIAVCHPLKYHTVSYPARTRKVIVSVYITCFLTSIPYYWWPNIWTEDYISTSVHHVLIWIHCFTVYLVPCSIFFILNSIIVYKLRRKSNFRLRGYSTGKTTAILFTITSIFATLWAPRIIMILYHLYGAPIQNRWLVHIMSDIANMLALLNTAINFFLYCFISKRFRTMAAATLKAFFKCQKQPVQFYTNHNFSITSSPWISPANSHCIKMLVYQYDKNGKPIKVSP
Procedure: GPR activity was assessed using a calcium detection assay. […] Negative control samples were treated with DMSO. […] Intracellular calcium was measured using Calcium 5.

[2] = system: parental HEK cells; experiment: HEK parental Agonist Counterscreen Assay (non-transfected cells); assay type: cell-based; details: for Averaged Max % Response (±St. Dev.): activity relative to known control
Source text: The high control for the agonist counterscreen was Forskolin not acetylcholine.

[3] = Homo sapiens, HEK293, HEK Agonist Activity section of Table 4 (parental HEK counterscreen)
[4] = HEK Agonist Activity section of Table 4 (parental HEK counterscreen)
[5] = values printed in E-notation without unit
[6] = HEK Agonist Activity, parental non-transfected HEK cells
[7] = Homo sapiens, HEK293, HEK Agonist Activity, parental non-transfected HEK cells

## O=C(Cn1ncn2c(cc3sccc32)c1=O)NCCc1ccc(Cl)cc1 [SR-01000099712]
[1]
  Efficiency Ligand: 0.33
  Hill Slope: 1.73
  Lipophilic Efficiency (logD): 3.73
  Lipophilic Efficiency (logP): 3.73
  Averaged Max % Response (±St. Dev.): 90.08 ± 9.76%
[1]; HEK-GPR139 cells
  EC50: 839 nM
[2]; HEK Agonist Activity section
  Lipophilic Efficiency (logD): 2.50
  Lipophilic Efficiency (logP): 2.50
  Averaged Max % Response (±St. Dev.): 7.86 ± 5.01%
[2]; [3]
  EC50: > 14100 nM

## CC(C(=O)NCCn1nnn(-c2ccccc2)c1=O)n1nc2ccccc2n1 (stereo not drawn) [SR-01000373848]
[1]
  Efficiency Ligand: 0.32
  Hill Slope: 0.90
  Lipophilic Efficiency (logD): 3.07
  Lipophilic Efficiency (logP): 3.07
  Averaged Max % Response (±St. Dev.): 97.42 ± 13.41%
[1]; HEK-GPR139 cells
  EC50: 354 nM
[2]; HEK Agonist Activity section
  Lipophilic Efficiency (logD): 1.47
  Lipophilic Efficiency (logP): 1.47
  Averaged Max % Response (±St. Dev.): 7.32 ± 0.96%
[2]; [4]
  EC50: > 14100 nM

## CC(C)(C)CN1CCNC(=O)C1CC(=O)NCCc1cnn(-c2ccccc2)c1 (stereo not drawn) [SR-01000177515]
[1]
  Averaged Max % Response (±St. Dev.): 91.26 ± 4.77%
[1]; based on logD
  Lipophilic Efficiency (logD): 5.92
[1]; based on logP
  Lipophilic Efficiency (logP): 5.67
[1]; fitted dose-response curve
  Hill Slope: 0.48
[1]; ligand efficiency
  Efficiency Ligand: 0.37
[1]; [5]
  EC50: 22.6 nM
[2]; HEK Agonist Activity
  Lipophilic Efficiency (logD): 3.12
  Lipophilic Efficiency (logP): 2.87
  Averaged Max % Response (±St. Dev.): 24.98 ± 4.71%
[2]; [6]
  EC50: > 14100 nM

## CC(NC(=O)c1ccc2c(c1)N(Cc1ccccc1)C(=O)C[S+]2[O-])c1ccccc1 (stereo not drawn) [SR-01000129845]
[1]
  Averaged Max % Response (±St. Dev.): 98.04 ± 26.06%
[1]; based on logD
  Lipophilic Efficiency (logD): 3.96
[1]; based on logP
  Lipophilic Efficiency (logP): 3.96
[1]; fitted dose-response curve
  Hill Slope: 1.01
[1]; ligand efficiency
  Efficiency Ligand: 0.32
[1]; [5]
  EC50: 138 nM
[2]; HEK Agonist Activity section
  Lipophilic Efficiency (logD): 1.95
  Lipophilic Efficiency (logP): 1.95
  Averaged Max % Response (±St. Dev.): 8.19 ± 5.50%
[2]; [4]
  EC50: > 14100 nM

## O=C(CSc1ccc(Cl)cc1)NNC(=O)c1ccc(O)cc1 [SR-01000060349]
[1]
  Averaged Max % Response (±St. Dev.): 123.74 ± 9.56%
[1]; based on logD
  Lipophilic Efficiency (logD): 5.31
[1]; based on logP
  Lipophilic Efficiency (logP): 5.26
[1]; fitted dose-response curve
  Hill Slope: 0.81
[1]; ligand efficiency
  Efficiency Ligand: 0.50
[1]; [5]
  EC50: 16.2 nM
[2]; HEK Agonist Activity
  Lipophilic Efficiency (logD): 2.34
  Lipophilic Efficiency (logP): 2.30
  Averaged Max % Response (±St. Dev.): 36.27 ± 9.28%
[2]; [7]
  EC50: > 15100 nM

## COc1ccccc1CC1(C)NC(=O)N(CC(=O)NC(C)c2cccc(Cl)c2)C1=O (stereo not drawn) [SR-01000069564]
[1]
  Averaged Max % Response (±St. Dev.): 87.90 ± 18.60%
[1]; based on logD
  Lipophilic Efficiency (logD): 4.85
[1]; based on logP
  Lipophilic Efficiency (logP): 4.85
[1]; fitted dose-response curve
  Hill Slope: 0.93
[1]; ligand efficiency
  Efficiency Ligand: 0.36
[1]; [5]
  EC50: 17.2 nM
[2]; HEK Agonist Activity
  Lipophilic Efficiency (logD): 1.93
  Lipophilic Efficiency (logP): 1.93
  Averaged Max % Response (±St. Dev.): −3.54 ± 8.88%
[2]; [6]
  EC50: > 14400 nM

## CN(Cc1cccs1)C(=O)CN1C(=O)NC(C)(c2ccc3c(c2)OCO3)C1=O (stereo not drawn) [SR-01000068229]
[1]
  Averaged Max % Response (±St. Dev.): 112.57 ± 13.42%
[1]; based on logD
  Lipophilic Efficiency (logD): 7.01
[1]; based on logP
  Lipophilic Efficiency (logP): 7.01
[1]; fitted dose-response curve
  Hill Slope: 0.64
[1]; ligand efficiency
  Efficiency Ligand: 0.43
[1]; [5]
  EC50: 2.9 nM
[2]; HEK Agonist Activity
  Lipophilic Efficiency (logD): 3.29
  Lipophilic Efficiency (logP): 3.29
  Averaged Max % Response (±St. Dev.): −2.42 ± 7.08%
[2]; [6]
  EC50: > 15400 nM

## CN1CCC(Oc2cc(-c3cn[nH]c3)ccc2NC(=O)C2COc3ccc(F)cc3C2)C1 (stereo not drawn) [SR-00000006339]
[1]
  Averaged Max % Response (±St. Dev.): 103.42 ± 7.86%
[1]; based on logD
  Lipophilic Efficiency (logD): 6.10
[1]; based on logP
  Lipophilic Efficiency (logP): 5.03
[1]; fitted dose-response curve
  Hill Slope: 0.54
[1]; ligand efficiency
  Efficiency Ligand: 0.35
[1]; [5]
  EC50: 9 nM
[2]; HEK Agonist Activity
  Lipophilic Efficiency (logD): 2.91
  Lipophilic Efficiency (logP): 1.83
  Averaged Max % Response (±St. Dev.): 5.16 ± 8.02%
[2]; [7]
  EC50: > 14100 nM

## Cc1cccc(NC(=S)NNC(=O)CSCc2cccc3ccccc23)c1 [SR-07000002775]
[1]
  Averaged Max % Response (±St. Dev.): 88.97 ± 19.06%
[1]; based on logD
  Lipophilic Efficiency (logD): 1.77
[1]; based on logP
  Lipophilic Efficiency (logP): 1.77
[1]; fitted dose-response curve
  Hill Slope: 0.76
[1]; ligand efficiency
  Efficiency Ligand: 0.35
[1]; [5]
  EC50: 205 nM
[2]; HEK Agonist Activity section
  Lipophilic Efficiency (logD): −0.064
  Lipophilic Efficiency (logP): −0.064
  Averaged Max % Response (±St. Dev.): 2.05 ± 12.71%
[2]; [3]
  EC50: > 14100 nM

## Cc1cccnc1NC(=O)Cn1ncc2c1-c1ccccc1OC2 [SR-01000152365]
[1]
  Averaged Max % Response (±St. Dev.): 96.01 ± 17.34%
[1]; based on logD
  Lipophilic Efficiency (logD): 4.77
[1]; based on logP
  Lipophilic Efficiency (logP): 4.77
[1]; fitted dose-response curve
  Hill Slope: 0.99
[1]; ligand efficiency
  Efficiency Ligand: 0.42
[1]; [5]
  EC50: 73 nM
[2]; HEK Agonist Activity section
  Lipophilic Efficiency (logD): 2.49
  Lipophilic Efficiency (logP): 2.49
  Averaged Max % Response (±St. Dev.): 18.44 ± 8.07%
[2]; [4]
  EC50: > 14100 nM

## CCCC(=O)C1CCC(C(=O)CC2CCC(c3ccc(C(C)O)cc3)C2=O)CC1 (stereo not drawn) [SR-01000924775]
[1]
  Efficiency Ligand: 0.31
  Hill Slope: 0.79
  Lipophilic Efficiency (logD): 4.98
  Lipophilic Efficiency (logP): 4.98
  Averaged Max % Response (±St. Dev.): 69.93 ± 11.99%
[1]; HEK-GPR139 cells
  EC50: 387 nM
[2]; HEK Agonist Activity section
  Lipophilic Efficiency (logD): 3.42
  Lipophilic Efficiency (logP): 3.42
  Averaged Max % Response (±St. Dev.): 10.92 ± 3.68%
[2]; [3]
  EC50: > 14100 nM

## O=C(CN1CC(=O)N(Cc2ccc(O)cc2)C(c2ccccc2Cl)C1=O)NCc1ccco1 (stereo not drawn) [SR-01000583711]
[1]
  Efficiency Ligand: 0.27
  Hill Slope: 0.32
  Lipophilic Efficiency (logD): 3.24
  Lipophilic Efficiency (logP): 3.24
  Averaged Max % Response (±St. Dev.): 95.83 ± 14.92%
[1]; HEK-GPR139 cells
  EC50: 469 nM
[2]; HEK Agonist Activity section
  Lipophilic Efficiency (logD): 1.87
  Lipophilic Efficiency (logP): 1.87
  Averaged Max % Response (±St. Dev.): 9.29 ± 2.62%
[2]; [3]
  EC50: > 11100 nM

## Cc1ccc(NC(=O)CSC2=C(C#N)C(c3ccc(F)cc3)CC(=O)N2)c(C)c1 (stereo not drawn) [SR-01000484494]
[1]
  Efficiency Ligand: 0.28
  Hill Slope: 0.89
  Lipophilic Efficiency (logD): 1.82
  Lipophilic Efficiency (logP): 1.82
  Averaged Max % Response (±St. Dev.): 114.96 ± 19.78%
[1]; HEK-GPR139 cells
  EC50: 1900 nM
[2]; HEK Agonist Activity section
  Lipophilic Efficiency (logD): 0.89
  Lipophilic Efficiency (logP): 0.89
  Averaged Max % Response (±St. Dev.): 14.09 ± 3.35%
[2]; [4]
  EC50: > 16000 nM

## O=C(CCS(=O)(=O)c1cccc2nonc12)NCCc1ccc(Cl)cc1 [SR-01000119565]
[1]
  Efficiency Ligand: 0.30
  Hill Slope: 1.07
  Lipophilic Efficiency (logD): 3.46
  Lipophilic Efficiency (logP): 3.46
  Averaged Max % Response (±St. Dev.): 68.12 ± 14.87%
[1]; HEK-GPR139 cells
  EC50: 3000 nM
[2]; HEK Agonist Activity section
  Lipophilic Efficiency (logD): 2.79
  Lipophilic Efficiency (logP): 2.79
  Averaged Max % Response (±St. Dev.): 5.54 ± 5.16%
[2]; [4]
  EC50: > 14100 nM

## CC(NC(=O)COC(=O)c1ccccc1C(F)(F)F)c1ccccc1 (stereo not drawn) [SR-01000037440]
[1]
  Averaged Max % Response (±St. Dev.): 90.68 ± 18.21%
[1]; based on logD
  Lipophilic Efficiency (logD): 3.59
[1]; based on logP
  Lipophilic Efficiency (logP): 3.59
[1]; fitted dose-response curve
  Hill Slope: 0.54
[1]; ligand efficiency
  Efficiency Ligand: 0.42
[1]; [5]
  EC50: 32.9 nM
[2]; HEK Agonist Activity
  Lipophilic Efficiency (logD): 0.95
  Lipophilic Efficiency (logP): 0.95
  Averaged Max % Response (±St. Dev.): 16.47 ± 8.15%
[2]; [7]
  EC50: > 14400 nM
